Here are results for two substances from patent publication US12410428B2, “RNA-guided transcriptional regulation and methods of using the same for the treatment of back pain” (University of Utah Research Foundation, priority 2018, dated 2025).

The test system of one series is TNFR1. As to the kind of experiment: Human NP cell CRISPRi: TNFR1 knockdown by qRT-PCR. To be noted: human NP cells. Type of series: cell-based. The method, then:
Human NP Cell CRISPRi. […] Quantitative RT-PCR was performed to identify TNFR1 knockdown in these primary human NP cells. Additionally, flow-cytometry was performed to determine transduction efficiency in human NP cells.
For orientation: In qPCR the cycle at which signal appears reflects the starting amount.

Series [1] deals with TNFR1 signaling (NF-κB activity). Description: NF-κB activity assay in HEK293T cells dosed with TNF-α. Type of series: cell-based, human. To be noted: 0.15 ng/mL TNF-α, 24 hours. The method, then:
Measurement of functional effects of epigenome editing based gene downregulation. NE-κB activity assays. HEK293T cells and hADMSCs were transduced with the earlier mentioned NF-κB reporter vector and analyzed for changes in NF-κB activity in response to dosing cells with TNF-α/IL-1β (RnD systems, ProSpec). To further describe, cells expressing the NF-κB reporter were plated in white 96-well plates (HEK293T cells at 25,000 cells/well and hADMSCs at 5000 cells/well) and allowed to attach overnight. The next day cells were dosed with the appropriate amounts of inflammatory cytokines (0, […], 1, and/or 10 ng/mL of TNF-α/IL-1β) for 24 hours. At 24 hours luminescence corresponding to NF-κB activity was measured in one set of cells using the bright glo assay (Promega) and cell number was measured on another set of cells under the same treatment using the real-time glo assay (Promega). Changes in NF-κB activity were quantified as a fold change in luminescence relative to the no dose control for each cell type, with NF-κB activity normalized to cell number.

For “5′-AUAAGCGUCCGACACAUGAU-3′ (expressed or natural sequence) [TNFR1 gRNA 4, 82]”, the TNFR1 knockdown with TNFR1 (with dCas9-KRAB) is recorded as 55%; with TNFR1 (with dCas9 alone), “no knockdown”.

On to “5′-CAGUGUUGCAACAGCGGGAC-3′ (expressed or natural sequence) [TNFR1 gRNA 1, 79]”, for which the “NF-κB activity vs no dose control” value in series [1] was “no significant increase in NF-κB activity”.
